Columns and labels:
HCT116 cells [1] = system: HCT116 cells; set-up: method as in PMID 23960016; settings: HCT116 vs primary rat hepatocytes; cited from earlier work
KRAS mRNA = KRAS mRNA steady-state levels by Taqman Real-time RT-PCR; settings: IC50 concentrations
KRAS21 G-quadruplex DNA = assay: FRET melting assay, KRAS G-quadruplex DNA; format: binding; settings: standard deviation < 0.2°C
Method: (§1) The capacity of compounds 1a-d, 2a-d and the standard G4 ligand TMPyP4 (Fig 1) to bind and stabilize KRAS [26] and HSP90A [27] G4 DNA structures as well as duplex DNA (T-loop) was evaluated by a Fluorescence Resonance Energy Transfer (FRET) melting assay. […] It was observed that the basicity of side chains correlates positively with thermal G4 stabilization of all DNA sequences up to an optimal pKa ~ 8.0–9.0 (Fig 2). Heterocyclic amines at the end of alkyl side chain (1b and 2b) appear to improve binding to G4s and complex stabilization compared to the di-ethylamine group (1a and 2a), which cannot be explained by differences in basicity between terminal groups. […] However, this was not observed for the isomeric pair 1a / 2a.
(§2) All oligonucleotides were purchased from Eurofins MWG Synthesis GmbH, Germany. The labeled oligonucleotides used in the FRET assays had attached the donor fluorophore FAM (6-carboxyfluorescein) and the acceptor fluorophore TAMRA (6-carboxytetramethylrhodamine): KRAS21R (5’-FAM-[…]-TAMRA-3’); HSP90A (5’- [FAM]-[…]-[TAMRA]-3’); T-Loop (5’-FAM-[…]-TAMRA-3’). Each oligonucleotide was initially diluted to a storage solution at 100 μM in nuclease free water (not DEPC-treated), purchased from Ambion Applied Biosystems UK.
(§3) The ability of IQ3A and TMPyP4 to stabilize G-quadruplex and duplex DNA sequences was investigated using a Fluorescence Resonance Energy Transfer (FRET) assay. Stock solution of the oligonucleotides sequences at 20 μM and subsequent dilutions were obtained from storage solutions diluting with K-cacodylate buffer pH = 7.4, containing 60 mM K^+ (10 mM potassium cacodylate, 50 mM KCl). The FRET probe sequences were diluted from stock to the correct concentration (0.4 μM) and then annealed by heating to 95°C for 10 min, followed by cooling to RT. Test compounds were prepared as 1 mM in 10% DMSO and 10% 1mM HCl in HPLC-grade water. The rest of the dilutions were performed using FRET buffer. Annealed DNA (50 μL) and compound solution (50 μL) were distributed across 96-well RT-PCR plates (BioRad; MJ Research, Waltham, MA, USA). Relevant controls were also performed to check for interference with the assay. Fluorescence readings were made on a DNA Engine Opticon (MJ Research) with excitation at 450–495 nm and detection at 515–545 nm, taken at intervals of 0.5°C in the range 30–100°C, with a constant temperature being maintained for 30 s prior to each reading to ensure a stable value. Experiments were performed in triplicate. Final analysis of the data was carried out with GraphPad Prism 5.0 software (GraphPad Software, Inc). The advanced curve-fitting function in GraphPad Prism was used for calculation of ΔT m values and associated standard deviations.

SW620 cells = assay: MTS short-term cytotoxicity assay (72 h), SW620; format: cell-based; settings: 72 h, MTS, standard errors ≤ 0.1
Method: (§4) The short-term effect of compounds at 72 h on cell growth was studied using colorectal carcinoma cell lines with different KRAS and TP53 genotypes: human colorectal carcinoma HCT116 (mut Kras, wild-type (wt) p53), and human metastatic colorectal adenocarcinoma SW620 (mut Kras, mut p53). In parallel, we also used the immortalized human embryonic kidney cell line HEK293T (wt Kras, wt p53) and normal human colon fibroblast cells CCD18co (wt Kras, wt p53).
(§5) SW620 human colorectal adenocarcinoma cells (European Collection of Cell Cultures, ECACC, Porton Down, Wiltshire, UK), HEK293T human embryonic kidney cells (ATCC, LGC Standards, UK) HCT116 human colon carcinoma cells (ECACC), HCT116 p53(+/+) and p53(−/−) isogenic human colon cancer cells (GRCF Cell Center and Biorepository, the Johns Hopkins University, School of Medicine, Baltimore, MD, USA), were grown in Dulbecco’s modified Eagle’s medium (DMEM) supplemented with 10% fetal bovine serum, and 1% antibiotic/antimycotic (Invitrogen, Grand Island, NY, USA), CCD18co human colon fibroblasts (ATCC, CRL-1459) were grown in Minimum Essential Medium (MEM) supplemented with 10% fetal bovine serum, 1% antibiotic/antimycotic, 2 mM GlutaMAX, 0,1 mM Non-essential amino acids (NEAA) (Invitrogen) and […] Recombinant Human TNF-α (Peprotech, USA) and maintained at 37°C in a humidified atmosphere of 5% CO2.
(§6) Cell viability was evaluated by the tetrazolium dye (MTS) Short-Term Cytotoxicity Assay. […] Following 72 h of compound exposure, cell viability was evaluated using the CellTiter 96 AQueous Non-Radioactive Cell Proliferation Assay (Promega, Madison, WI, USA), using 3-(4,5-dimethylthiazol-2-yl)-5-(3-carboxymethoxyphenyl)-2-(4-sulfophenyl)-2H-tetrazolium, inner salt (MTS) as previously described [35]. Cell viability data were expressed as mean ±SD from at least three independent experiments. IC50 and IC65 values were determined using GaphPad Prism v.5.00 (GraphPad Software). In selected experiments, cell viability was also assessed by trypan blue exclusion assay, and general cell death by LDH activity from cell culture supernatants.

T-Loop duplex DNA = assay: FRET melting assay, duplex DNA; format: binding; settings: standard deviation < 0.2°C
Method: as §1, §2, §3

HCT116 cells [2] = assay: MTS short-term cytotoxicity assay (72 h), HCT116; format: cell-based, human
Method: as §4, §5, §6

HSP90A G-quadruplex DNA = assay: FRET melting assay, HSP90A G-quadruplex DNA; format: binding; settings: standard deviation < 0.2°C
Method: as §1, §2, §3

HEK293T cells = assay: MTS short-term cytotoxicity assay (72 h), HEK293T; format: cell-based, human; settings: MTS
Method: as §4, §5, §6

CCD18co cells = assay: MTS short-term cytotoxicity assay (72 h), CCD18co; format: cell-based; settings: Homo sapiens, CCD-18Co, MTS, standard errors ≤ 0.1, read-out: CCD18co IC50
Method: as §4, §5, §6

In the case of `CCN(CC)CCOC(=O)c1ccc2c(c1)c1nc3ccccc3c(OCCN(CC)CC)c1n2CCN(CC)CC` [1a], the “Selective growth inhibition of KRAS mutant HCT116 cells compared to primary rat hepatocytes” value (HCT116 cells [1]) is listed as 100 fold, the “down-regulation of KRAS transcription (mRNA)” value (KRAS mRNA; HCT116, 72 h) is listed as ~40% and the “down-regulation of KRAS transcription (mRNA)” value (KRAS mRNA; SW620, 72 h) is listed as “not significantly so”. For the same compound, the “ΔTm (°C) KRAS21 1 μM” value (KRAS21 G-quadruplex DNA; 1 μM compound) was 8 °C, the “ΔTm (°C) KRAS21 2 μM” value (KRAS21 G-quadruplex DNA; 2 μM compound) was 12 °C and the “SW620 IC65” value (SW620 cells) was 4.12 µM. For the same compound, the IC50 (SW620 cells; Homo sapiens, SW-620, read-out: SW620 IC50) was 2.69 µM, the “ΔTm (°C) T-Loop 1 μM” value (T-Loop duplex DNA; 1 μM compound) was <2 °C and the “ΔTm (°C) T-Loop 2 μM” value (T-Loop duplex DNA; 2 μM compound) was 3 °C. The “HCT116 IC65” value (HCT116 cells [2]; 72 h, MTS, standard errors ≤ 0.1) was 3.42 µM, the “Selective index (SI) = IC50 CCD-18co / IC50 HCT116” value (HCT116 cells [2]; CCD18co vs HCT116) was 2.46 and the IC50 (HCT116 cells [2]; Homo sapiens, HCT-116, 72 h, MTS, standard errors ≤ 0.1, read-out: HCT116 IC50) was 1.88 µM. For the same compound, the “ΔTm (°C) HSP90A 1 μM” value (HSP90A G-quadruplex DNA; 1 μM compound) was 14 °C, the “ΔTm (°C) HSP90A 2 μM” value (HSP90A G-quadruplex DNA; 2 μM compound) was 20 °C and the IC50 (HEK293T cells; Homo sapiens, HEK-293T, standard errors ≤ 0.1, read-out: HEK293T IC50) was 3.23 µM. For the same compound, the “HEK293T IC65” value (HEK293T cells; standard errors ≤ 0.1) was 6.06 µM and the IC50 (CCD18co cells) was 4.63 µM.

Reference: article PMC4449006, “Targeting KRAS Oncogene in Colon Cancer Cells with 7-Carboxylate Indolo[3,2-b]quinoline Tri-Alkylamine Derivatives” (PLoS ONE, 2015)
